Drawing on US20100105655A1, “NOVEL COMPOUNDS 515” (ASTRAZENECA AB, priority 2008, published 2010), this text covers IC50 and melting point for 21 compounds.

The target of the first data set is T1, human IGF1R (Homo sapiens, UniProt P08069).
T1 construct: expressed in transfected cells; host or cells: R+ cells (R- mouse fibroblasts transfected with human IGF1R)
T1 sequence (P08069 31-1367): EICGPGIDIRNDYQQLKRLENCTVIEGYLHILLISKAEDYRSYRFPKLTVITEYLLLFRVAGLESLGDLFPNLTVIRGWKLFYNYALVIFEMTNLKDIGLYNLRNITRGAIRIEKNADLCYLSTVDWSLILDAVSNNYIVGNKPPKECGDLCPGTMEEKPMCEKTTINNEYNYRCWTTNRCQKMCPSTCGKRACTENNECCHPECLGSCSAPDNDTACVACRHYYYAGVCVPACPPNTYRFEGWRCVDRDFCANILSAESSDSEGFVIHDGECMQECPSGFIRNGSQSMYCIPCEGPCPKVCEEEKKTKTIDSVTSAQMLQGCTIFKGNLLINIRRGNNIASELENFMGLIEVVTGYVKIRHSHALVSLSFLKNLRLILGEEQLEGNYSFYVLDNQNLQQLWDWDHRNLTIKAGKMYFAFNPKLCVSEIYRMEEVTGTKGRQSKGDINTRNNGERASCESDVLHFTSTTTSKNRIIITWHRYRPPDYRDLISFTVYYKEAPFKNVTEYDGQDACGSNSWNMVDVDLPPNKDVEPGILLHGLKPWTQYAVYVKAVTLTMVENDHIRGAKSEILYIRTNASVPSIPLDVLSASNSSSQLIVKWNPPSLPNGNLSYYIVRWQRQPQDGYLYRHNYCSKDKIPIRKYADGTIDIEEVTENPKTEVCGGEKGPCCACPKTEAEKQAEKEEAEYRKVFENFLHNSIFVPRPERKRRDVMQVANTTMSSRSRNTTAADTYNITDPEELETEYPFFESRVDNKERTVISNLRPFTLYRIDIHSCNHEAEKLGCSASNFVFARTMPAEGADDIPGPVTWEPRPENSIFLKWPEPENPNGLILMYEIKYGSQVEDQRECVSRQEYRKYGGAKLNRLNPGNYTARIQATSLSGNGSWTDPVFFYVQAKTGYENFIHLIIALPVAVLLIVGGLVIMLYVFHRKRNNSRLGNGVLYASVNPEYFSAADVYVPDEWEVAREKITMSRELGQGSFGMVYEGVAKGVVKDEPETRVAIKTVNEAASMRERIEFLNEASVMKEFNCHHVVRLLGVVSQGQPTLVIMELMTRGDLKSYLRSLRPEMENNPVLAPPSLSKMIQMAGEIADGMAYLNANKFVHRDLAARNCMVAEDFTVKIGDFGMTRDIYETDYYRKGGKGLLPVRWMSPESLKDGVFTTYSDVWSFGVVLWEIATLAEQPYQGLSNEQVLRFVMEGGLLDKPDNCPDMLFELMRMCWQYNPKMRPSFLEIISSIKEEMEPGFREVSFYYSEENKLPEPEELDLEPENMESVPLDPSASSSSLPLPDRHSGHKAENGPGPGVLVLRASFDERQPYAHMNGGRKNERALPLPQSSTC
Put plainly: Inhibition of insulin-like growth factor-1 receptor phosphorylation (immunofluorescence end point cell assay, R+ cells). The data set is classed as cell-based. The following applies: R+ cells stimulated with 30 nM IGF1. As for the experimental part: This immunofluorescence end point cell assay measures the ability of a test compound to reduce the measured levels of IGF phosphorylation after IGF1 stimulation in R^+ cells. R^+ cells are derived by transfection of R^− mouse fibroblast cells with human IGF1R. R^+ cells are routinely cultured in DMEM growth medium (Gibco BRL, 41966) containing 2 mM L-Glutamine (Invitrogen Code no. 25030-024) and 10% (v/v) foetal bovine serum (FBS)) in a 5% CO2 air incubator at 37° C.
To undertake the assay, the R^+ cells are seeded at 5×10^3 cells/well in DMEM plus 1% foetal calf serum, 1% L-glutamine in 96-well black Packard View plates (PerkinElmer 6005182) and incubated at 37° C. (+5% CO2) in a humidified incubator. […]
Following the compound treatment, the R^+ cells are stimulated with a final concentration of 30 nM IGF1 (Gropep IM001) for 20 minutes at 37° C. […] Additionally, in-house antibodies raised against phospho IGF1R were also used at a suitable titre determined for each batch. […]
The Green Fluorescent phospho IGF1R-associated signal in each well was measured using an Acumen Explorer HTS Reader (TTP Labtech Ltd., Cambridge). Phospho IGF1R-associated fluorescence emission can be detected at 530 nm following excitation at 488 nm. […] These fluorescent objects can be quantified and provide a measure of the phospho IGF1R levels in cells. […]
As a reminder, the IC50 is the concentration that gives 50% inhibition. Compound `COc1cc(N2CC(C)NC(C)C2)ccc1Nc1ncc(Cl)c(-c2cnc3ccccn23)n1` (stereo not shown) [5-chloro-N-[4-(3,5-dimethylpiperazin-1-yl)-2-methoxy-phenyl]-4-imidazo[1,2-a]pyridin-3-yl-pyrimidin-2-amine] registered a half-inhibitory concentration (IC50) of 4 nM.

Tested on in another data set: not given
Experiment: not given
Settings: not given
`COc1cc(N2CCN(CCO)CC2)ccc1Nc1ncc(F)c(-c2cnc3ccccn23)n1` [Example 81, 2-[4-[4-[(5-fluoro-4-imidazo[1,2-a]pyridin-3-yl-pyrimidin-2-yl)amino]-3-methoxy-phenyl]piperazin-1-yl]ethanol]: the melting point was ~ 171.3 °C.

The target in another data set is T2, IGFR kinase (Homo sapiens, UniProt P08069).
T2 construct: purchased Millipore
T2 sequence (P08069 31-1367): as above
Put plainly: Enzyme assay (c), IGFR kinase, Caliper LabChip. The data set is classed as biochemical. The settings on record: 30 nM IGFR kinase, 6 uM ATP, 3 uM peptide mix; read-out: IGFR IC50.
Turning to `COc1cc(N2CCN(CCO)CC2)ccc1Nc1ncc(F)c(-c2cnc3ccccn23)n1` [Example 81, 2-[4-[4-[(5-fluoro-4-imidazo[1,2-a]pyridin-3-yl-pyrimidin-2-yl)amino]-3-methoxy-phenyl]piperazin-1-yl]ethanol], the half-inhibitory concentration (IC50) was 30 nM.
The same measure, in the same setting: under `COc1cc(N2CCN(C(=O)[C@@H](N)CCO)CC2)ccc1Nc1ncc(Cl)c(-c2cnc3ccccn23)n1` [Example 24.13, (2S)-2-amino-1-[4-[4-[(5-chloro-4-imidazo[1,2-a]pynidin-3-yl-pyrimidin-2-yl)amino]-3-methoxy-phenyl]piperazin-1-yl]-4-hydroxy-butan-1-one] stands 5 nM; under `COc1cc(N2CC[C@@H](N(C)C)C2)ccc1Nc1ncc(Cl)c(-c2cnc3ccccn23)n1` [Example 3.11, 5-chloro-N-[4-[(3R)-3-dimethylaminopyrrolidin-1-yl]-2-methoxy-phenyl]-4-imidazo[1,2-a]pyridin-3-yl-pyrimidin-2-amine], 69 nM; under `COc1cc(N2CC3CN(C(C)=O)CC(C2)O3)ccc1Nc1ncc(Cl)c(-c2cnc3c(F)cccn23)n1` [Example 215, 1-[3-[4-[[5-chloro-4-(8-fluoroimidazo[1,2-a]pyridin-3-yl)pyrimidin-2-yl]amino]-3-methoxy-phenyl]-9-oxa-3,7-diazabicyclo[3.3.1]nonan-7-yl]ethanone], 9 nM.
The same measure, in the same setting: under `COc1cc(CN2CCN(C)CC2)ccc1Nc1ncc(Cl)c(-c2cnc3ccccn23)n1` [Example 21.4, 5-chloro-4-imidazo[1,2-a]pyridin-3-yl-N-[2-methoxy-4-[(4-methylpiperazin-1-yl)methyl]phenyl]pyrimidin-2-amine] stands 30 nM; under `COc1cc(N2CCN(CC(C)(C)O)CC2)ccc1Nc1ncc(Cl)c(-c2cnc3ccccn23)n1` [Example 52, 1-[4-[4-[(5-chloro-4-imidazo[1,2-a]pyridin-3-yl-pyrimidin-2-yl)amino]-3-methoxy-phenyl]piperazin-1-yl]-2-methyl-propan-2-ol], 10 nM.
Same read-out and setting: as for `COc1cc(CN2CCC[C@@H](O)C2)ccc1Nc1ncc(Cl)c(-c2cnc3ccccn23)n1` [Example 21.12, (3R)-1-[[4-[(5-chloro-4-imidazo[1,2-a]pyridin-3-yl-pyrimidin-2-yl)amino]-3-methoxy-phenyl]methyl]piperidin-3-ol], the figure is 24 nM.
Turning to `COc1cc(OC2CN(C(=O)CO)C2)ccc1Nc1ncc(Cl)c(-c2cnc3ccccn23)n1` [Example 27.3, 1-[3-[4-[(5-chloro-4-imidazo[1,2-a]pyridin-3-yl-pyrimidin-2-yl)amino]-3-methoxy-phenoxy]azetidin-1-yl]-2-hydroxy-ethanone], the half-inhibitory concentration (IC50) was 22 nM.
Same read-out and setting: under `COc1cc(N2CCN(C(C)=O)CC2)c(C)cc1Nc1ncc(Cl)c(-c2cnc3ccccn23)n1` [Example 278, 1-[4-[4-[(5-chloro-4-imidazo[1,2-a]pyridin-3-yl-pyrimidin-2-yl)amino]-5-methoxy-2-methyl-phenyl]piperazin-1-yl]ethanone] stands 8 nM; under `COCCN(C)Cc1ccc(Nc2ncc(Cl)c(-c3cnc4ccccn34)n2)c(OC)c1` [Example 21.13, 5-chloro-4-imidazo[1,2-a]pyridin-3-yl-N-[2-methoxy-4-[(2-methoxyethyl-methyl-amino)methyl]phenyl]pyrimidin-2-amine], 32 nM.
With `COc1cc(CN2CCCOCC2)ccc1Nc1ncc(Cl)c(-c2cnc3ccccn23)n1` [Example 21.14, 5-chloro-4-imidazo[1,2-a]pyridin-3-yl-N-[2-methoxy-4-(1,4-oxazepan-4-ylmethyl)phenyl]pyrimidin-2-amine], the half-maximal inhibitory concentration (IC50) turned out to be 28 nM.
Consider `CNCC(=O)N1CCc2cc(OC)c(Nc3ncc(Cl)c(-c4cnn5ccccc45)n3)cc21` [Example 156, 1-[6-[(5-chloro-4-pyrazolo[1,5-a]pyridin-3-yl-pyrimidin-2-yl)amino]-5-methoxy-indolin-1-yl]-2-(methylamino)ethanone], for which the 50% inhibitory concentration (IC50) turned out to be 4 nM.
Same read-out and setting: as for `COc1cc(N2CCN(C(C)(C)CO)CC2)ccc1Nc1ncc(C)c(-c2cnc3ccc(F)cn23)n1` [Example 260, 2-[4-[4-[[4-(6-fluoroimidazo[1,2-a]pyridin-3-yl)-5-methyl-pyrimidin-2-yl]amino]-3-methoxy-phenyl]piperazin-1-yl]-2-methyl-propan-1-ol], the figure is 11 nM; as for `COc1cc(N2CCS(=O)(=O)CC2)ccc1Nc1ncc(Cl)c(-c2cnc3ccccn23)n1` [Example 3.15, 5-chloro-N-[4-(1,1-dioxo-1,4-thiazinan-4-yl)-2-methoxy-phenyl]-4-imidazo[1,2-a]pyridin-3-yl-pyrimidin-2-amine], 60 nM.
For `COc1cc(N2CC(C)N(C(C)=O)C(C)C2)ccc1Nc1ncc(Cl)c(-c2cnc3ccccn23)n1` (stereo not shown) [Example 3.31, 1-[4-[4-[(5-chloro-4-imidazo[1,2-a]pyridin-3-yl-pyrimidin-2-yl)amino]-3-methoxy-phenyl]-2,6-dimethyl-piperazin-1-yl]ethanone], the IC50 came to 11 nM.
The same measure, in the same setting: as for `COc1cc(N2CCN(C(=O)CO)CC2)ccc1Nc1ncc(Cl)c(-c2cnn3ccccc23)n1` [Example 130, 1-[4-[4-[(5-chloro-4-pyrazolo[1,5-a]pyridin-3-yl-pyrimidin-2-yl)amino]-3-methoxy-phenyl]piperazin-1-yl]-2-hydroxy-ethanone], the figure is 3 nM.
Same read-out and setting: under `COc1cc(OC[C@H]2CCCN2C(C)=O)ccc1Nc1ncc(OC)c(-c2cnc3ccccn23)n1` [Example 114, 1-[(2R)-2-[[4-[(4-imidazo[1,2-a]pyridin-3-yl-5-methoxy-pyrimidin-2-yl)amino]-3-methoxy-phenoxy]methyl]pyrrolidin-1-yl]ethanone] stands 13 nM.
Same read-out and setting: as for `COc1cc(N2CC3CN(C(=O)[C@@H](N)CO)CC(C2)O3)ccc1Nc1ncc(Cl)c(-c2cnc3c(F)cccn23)n1` [Example 210, (2S)-2-amino-1-[7-[4-[[5-chloro-4-(8-fluoroimidazo[1,2-a]pyridin-3-yl)pyrimidin-2-yl]amino]-3-methoxy-phenyl]-9-oxa-3,7-diazabicyclo[3.3.1]nonan-3-yl]-3-hydroxy-propan-1-one], the figure is 36 nM.
For `COc1cc(N2CCN(C[C@@H](C)O)CC2)ccc1Nc1ncc(Cl)c(-c2cnc3ccccn23)n1` [Example 51, (2R)-1-[4-[4-[(5-chloro-4-imidazo[1,2-a]pyridin-3-yl-pyrimidin-2-yl)amino]-3-methoxy-phenyl]piperazin-1-yl]propan-2-ol], the IC50 was 8 nM.
On the same count and under the same terms, as for `COc1cc(N2CCN(C(=O)[C@@H](C)N)CC2)ccc1Nc1ncc(Cl)c(-c2cnc3cc(C)ccn23)n1` [Example 254, (2R)-2-amino-1-[4-[4-[[5-chloro-4-(7-methylimidazo[1,2-a]pyridin-3-yl)pyrimidin-2-yl]amino]-3-methoxy-phenyl]piperazin-1-yl]propan-1-one], the figure is 5 nM.
